Measurements taken from US11492589B2, “Lactobacillus plantarum CJLP475 strain having antiviral and immunomodulatory effects and composition comprising the same” (CJ CHEILJEDANG CORPORATION, priority 2018, dated 2022).

tested on: Lactobacillus plantarum CJLP475 strain; assay: Antibiotic susceptibility test with antibiotic discs; assay type: cell-based; details: antibiotic discs on solid Mueller Hinton II medium, 37° C., 24 hours
Experimental: The CJLP475 strain was inoculated into a liquid MRS medium and subjected to a static culture at 37° C. for 24 hours. The thus-cultured bacteria were soaked in sterilized cotton swabs and smeared on a solid Mueller Hinton II medium (Difco), and then antibiotic discs were placed on the medium and incubated at 37° C. for 24 hours. Ampicillin, clindamycin, gentamicin, kanamycin, erythromycin, ampicillin/sulbactam, chloramphenicol, and streptomycin discs (Oxoid, UK) were used as antibiotic discs for the antibiotic test.

Point of comparison: `NC[C@H]1O[C@H](O[C@H]2[C@H](O)[C@@H](O[C@H]3O[C@H](CO)[C@@H](O)[C@H](N)[C@H]3O)[C@H](N)C[C@@H]2N)[C@H](O)[C@@H](O)[C@@H]1O` [K30 (Kanamycin), Kanamycin], “Radius of Growth Inhibition Area Centered Around Antibiotics” value 1.5 mm. Against it:
- CC1(C)S[C@@H]2[C@H](NC(=O)[C@H](N)c3ccccc3)C(=O)N2[C@H]1C(=O)O [Amp10 (Ampicillin), Ampicillin] — higher, 7 mm
- CCC[C@@H]1C[C@@H](C(=O)N[C@@H]([C@H]2O[C@H](SC)[C@H](O)[C@@H](O)[C@H]2O)[C@H](C)Cl)N(C)C1 [C30 (Clindamycin), Clindamycin] — higher, 8 mm
- [H]/N=C(/N)N[C@H]1[C@H](O)[C@@H](O)[C@H](O[C@@H]2O[C@@H](C)[C@](O)(C=O)[C@H]2O[C@@H]2O[C@@H](CO)[C@H](O)[C@@H](O)[C@@H]2NC)[C@@H](N/C(N)=N\[H])[C@@H]1O [DA2 (Streptomycin), Streptomycin] — higher, 4 mm
- CC[C@H]1OC(=O)[C@H](C)[C@@H](O[C@H]2C[C@@](C)(OC)[C@@H](O)[C@H](C)O2)[C@H](C)[C@@H](O[C@@H]2O[C@H](C)C[C@H](N(C)C)[C@H]2O)[C@](C)(O)C[C@@H](C)C(=O)[C@H](C)[C@@H](O)[C@]1(C)O [E15 (Erythromycin), Erythromycin] — higher, 9 mm
- O=C(N[C@H](CO)[C@H](O)c1ccc([N+](=O)[O-])cc1)C(Cl)Cl [S10 (Chloramphenicol), Chloramphenicol] — higher, 3 mm
- Ampicillin/Sulbactam [SAM20 (Ampicillin/Sulbactam)] — higher, 8 mm
- Gentamicin [CN120 (Gentamicin)] — higher, 9 mm
